The target in the assay is T1, SIRT1 (Homo sapiens, UniProt Q96EB6).
T1 sequence (Q96EB6 1-747): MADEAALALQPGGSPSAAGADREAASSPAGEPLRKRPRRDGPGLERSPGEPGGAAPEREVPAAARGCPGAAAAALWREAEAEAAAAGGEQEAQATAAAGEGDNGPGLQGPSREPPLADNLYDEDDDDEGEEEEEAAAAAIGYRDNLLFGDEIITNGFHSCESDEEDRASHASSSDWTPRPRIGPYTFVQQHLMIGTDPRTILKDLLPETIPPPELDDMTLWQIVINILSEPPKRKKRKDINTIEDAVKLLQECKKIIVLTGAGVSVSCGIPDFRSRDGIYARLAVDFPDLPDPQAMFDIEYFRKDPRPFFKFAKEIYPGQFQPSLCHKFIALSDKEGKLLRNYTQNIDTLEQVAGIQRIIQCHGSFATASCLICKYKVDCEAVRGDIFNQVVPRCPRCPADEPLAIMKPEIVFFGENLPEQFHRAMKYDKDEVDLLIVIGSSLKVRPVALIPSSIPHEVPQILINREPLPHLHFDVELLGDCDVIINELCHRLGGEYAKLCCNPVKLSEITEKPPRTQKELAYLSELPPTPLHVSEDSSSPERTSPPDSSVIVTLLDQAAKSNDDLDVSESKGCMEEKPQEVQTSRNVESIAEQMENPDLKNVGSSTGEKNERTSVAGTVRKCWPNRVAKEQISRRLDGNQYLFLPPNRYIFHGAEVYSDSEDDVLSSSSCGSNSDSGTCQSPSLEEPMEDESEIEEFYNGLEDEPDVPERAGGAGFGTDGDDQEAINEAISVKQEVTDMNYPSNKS
Briefly: Mass spectrometry based SIRT1 deacetylase activation assay (acetylated p53-derived peptide substrate). In kind it is biochemical.

Where [1] appears, read: 0.5 μM peptide substrate, 120 μM βNAD+, 10 nM SIRT1, 25 minutes at 25° C.
[2] abbreviates: 0.5 μM peptide substrate, 120 μM βNAD+, 10 nM SIRT1, 25 min at 25° C.
[3] abbreviates: 0.5 μM peptide substrate, 120 μM βNAD+, 10 nM SIRT1, 25 min at 25° C., read-out: EC1.5.

SMILES strings stand for the structures. Read-outs that look alike come from different tables or passages of the source.

As to `O=C(Nc1ccc(CN2CCNCC2)cn1)c1cccc2[nH]c(-c3ccccc3C(F)(F)F)nc12` [Compound 621, N-(5-(piperazin-1-ylmethyl)pyridin-2-yl)-2-(2-(trifluoromethyl)phenyl)-1H-benzo[d]imidazole-4-carboxamide], under setting [1], the EC1.5 result is listed as “A (EC1.5<1.0 uM)” and the “Fold Act. (percent maximum fold activation)” value was “A (Fold activation >200%)”.

`CN1CCOc2cc(-c3nc4c(C(=O)Nc5cnccn5)cccc4[nH]3)cnc21` [Compound 473]: the “Fold Act. (percent maximum fold activation)” value under setting [2] is reported as “A (Fold activation >200%)”. Under setting [3], the EC1.5 lay within 1000 to 25000 nM.

For `O=C(Nc1cnccn1)c1cccc2[nH]c(-c3ccccc3)nc12` [Compound 201], the EC1.5 result was “B (EC1.5 1-25 uM)” and the “Fold Act. (percent maximum fold activation)” value was “A (Fold activation >200%)”.

As to `Cc1nc(C)c(-c2nc3c(C(=O)Nc4ccccn4)cccc3[nH]2)s1` [Compound 320], the EC1.5 entry was “B (EC1.5 1-25 uM)” and the “Fold Act. (percent maximum fold activation)” value was “A (Fold activation >200%)”.

Take `O=C(NCc1cccnc1)c1cccc2[nH]c(-c3cccc(C(F)(F)F)c3)nc12` [Compound 270]: the EC1.5 entry was “C (EC1.5 >25 uM)” and the “Fold Act. (percent maximum fold activation)” value was “B (Fold Activation <200%)”.

Consider `O=C(Nc1ccccn1)c1cccc2[nH]c(-c3ccc(F)cc3OCCN3CCOCC3)nc12` [Compound 504], for which the “Fold Act. (percent maximum fold activation)” value under setting [2] is on record as “B (Fold Activation <200%)”. The EC1.5 under setting [3] fell in the range of 1000 to 25000 nM.

Take `O=C(Nc1nccs1)c1cccc2[nH]c(-c3ccccc3)nc12` [Compound 200]: the EC1.5 result is given as “B (EC1.5 1-25 uM)” and the “Fold Act. (percent maximum fold activation)” value is on record as “A (Fold activation >200%)”.

For `O=C(Nc1nccs1)c1cc(N2CCOCC2)cc2[nH]c(-c3ccc(F)cc3C(F)(F)F)nc12` [Compound 689], under setting [1], the EC1.5 entry is “A (EC1.5<1.0 uM)” and the “Fold Act. (percent maximum fold activation)” value is “A (Fold activation >200%)”.

For the compound `O=C(Nc1nccs1)c1cncc2[nH]c(-c3ccc(OC[C@H](O)CO)cc3C(F)(F)F)nc12` [Compound 761], under setting [1], the EC1.5 entry is reported as “A (EC1.5<1.0 uM)” and the “Fold Act. (percent maximum fold activation)” value is given as “A (Fold activation >200%)”.

Turning to `O=C(NCc1ccccn1)c1cccc2[nH]c(-c3ccnn3-c3ccccc3)nc12` [Compound 468], under setting [2], the “Fold Act. (percent maximum fold activation)” value is recorded as “B (Fold Activation <200%)”. Also, the EC1.5 under setting [3] is greater than 25000 nM.

Consider `O=C(Nc1cccc(OC[C@@H](O)CO)c1)c1cncc2[nH]c(-c3ccccc3C(F)F)nc12` [Compound 714], for which, under setting [1], the EC1.5 entry is reported as “A (EC1.5<1.0 uM)” and the “Fold Act. (percent maximum fold activation)” value was “A (Fold activation >200%)”.

For `O=C(Nc1cccc(OC[C@@H](O)CO)c1)c1cncc2[nH]c(-c3ccccc3C(F)(F)F)nc12` [Compound 747], under setting [1], the EC1.5 result is on record as “A (EC1.5<1.0 uM)” and the “Fold Act. (percent maximum fold activation)” value is reported as “A (Fold activation >200%)”.

As for `O=C(Nc1ccccn1)c1cncc2[nH]c(-c3ccc(OC[C@@H](O)CO)cc3C(F)F)nc12` [Compound 773], under setting [1], the EC1.5 result is “A (EC1.5<1.0 uM)” and the “Fold Act. (percent maximum fold activation)” value is reported as “A (Fold activation >200%)”.

In the case of `O=C(Nc1nccs1)c1cccc2[nH]c(-c3ccccc3OC3CCNCC3)nc12` [Compound 428, 2-(2-(piperidin-4-yloxy)phenyl)-N-(thiazol-2-yl)-1H-benzo[d]imidazole-4-carboxamide], the “Fold Act. (percent maximum fold activation)” value under setting [2] is on record as “A (Fold activation >200%)”. For the same compound, under setting [3], the EC1.5 is less than 1000 nM.

With `Cc1cc(NC(=O)c2cccc3[nH]c(-c4ccc(Cl)cc4C(F)(F)F)nc23)n(C)n1` [Compound 356], the EC1.5 result is “A (EC1.5<1.0 uM)” and the “Fold Act. (percent maximum fold activation)” value is “A (Fold activation >200%)”.

In the case of `O=C(Nc1nccs1)c1cccc2nc(-c3ccc(N4CCCC4)cc3C(F)F)[nH]c12` [Compound 764], under setting [1], the EC1.5 entry was “A (EC1.5<1.0 uM)” and the “Fold Act. (percent maximum fold activation)” value is reported as “A (Fold activation >200%)”.

Consider `O=C(Nc1cccnn1)c1cc(N2CCOCC2)cc2[nH]c(-c3ccc(Cl)cc3C(F)(F)F)nc12` [Compound 643], for which, under setting [1], the EC1.5 entry is reported as “A (EC1.5<1.0 uM)” and the “Fold Act. (percent maximum fold activation)” value was “A (Fold activation >200%)”.

For `Cc1cnc(NC(=O)c2cccc3[nH]c(-c4ccccc4OCCN4CCOCC4)nc23)s1` [Compound 475], under setting [2], the “Fold Act. (percent maximum fold activation)” value is “A (Fold activation >200%)”. In addition, the EC1.5 under setting [3] lay in the range of 1000 to 25000 nM.

Consider `Cc1csc(NC(=O)c2cccc3[nH]c(-c4cccc(C(F)(F)F)c4)nc23)n1` [Compound 206], for which the EC1.5 entry was “B (EC1.5 1-25 uM)” and the “Fold Act. (percent maximum fold activation)” value is “A (Fold activation >200%)”.

For `Cc1nc(C)c(-c2nc3c(C(=O)Nc4nccs4)cccc3[nH]2)s1` [Compound 304], the EC1.5 result was “A (EC1.5<1.0 uM)” and the “Fold Act. (percent maximum fold activation)” value was “A (Fold activation >200%)”.

For the compound `Cc1cnc(NC(=O)c2cc(F)cc3nc(-c4ccc(Cl)cc4C(F)F)[nH]c23)s1` [Compound 822], under setting [1], the EC1.5 result was “A (EC1.5<1.0 uM)” and the “Fold Act. (percent maximum fold activation)” value is “A (Fold activation >200%)”.

Regarding `O=C(Nc1nccs1)c1cccc2[nH]c(-c3ccc(Cl)cc3C(F)F)nc12` [Compound 562], the “Fold Act. (percent maximum fold activation)” value under setting [2] is given as “A (Fold activation >200%)”. Further, the EC1.5 under setting [3] is less than 1000 nM.

`Cc1nc(NC(=O)c2cccc3[nH]c(-c4cnc5c(c4)OCCN5C)nc23)sc1C` [Compound 458]: the “Fold Act. (percent maximum fold activation)” value under setting [2] was “A (Fold activation >200%)”. The EC1.5 under setting [3] is less than 1000 nM.

As for `O=C(Nc1cccnc1)c1cccc2[nH]c(-c3cccc(-c4nnn[nH]4)c3)nc12` [Compound 362], the EC1.5 result is recorded as “A (EC1.5<1.0 uM)” and the “Fold Act. (percent maximum fold activation)” value is listed as “A (Fold activation >200%)”.

With `O=C(Nc1nccs1)c1cccc2[nH]c(-c3ccccc3OCCN3CCCC3)nc12` [Compound 482, 2-(2-(2-(pyrrolidin-1-yl)ethoxy)phenyl)-N-(thiazol-2-yl)-1H-benzo[d]imidazole-4-carboxamide], under setting [2], the “Fold Act. (percent maximum fold activation)” value is listed as “A (Fold activation >200%)”. Under setting [3], the EC1.5 was 1000 to 25000 nM.

For the compound `O=C(Nc1nncs1)c1cccc2[nH]c(-c3cccc(C(F)(F)F)c3)nc12` [Compound 239], the EC1.5 entry is listed as “C (EC1.5 >25 uM)” and the “Fold Act. (percent maximum fold activation)” value was “B (Fold Activation <200%)”.

Consider `O=C(Nc1nccs1)c1cccc2[nH]c(-c3ccc(N4CCOCC4)cc3)nc12` [Compound 268], for which the EC1.5 result is given as “A (EC1.5<1.0 uM)” and the “Fold Act. (percent maximum fold activation)” value is “A (Fold activation >200%)”.

Consider `O=C(Nc1cccnn1)c1cccc2[nH]c(-c3ccccc3C(F)(F)F)nc12` [Compound 451], for which the “Fold Act. (percent maximum fold activation)” value under setting [2] was “A (Fold activation >200%)”. For the same compound, the EC1.5 under setting [3] is less than 1000 nM.

Regarding `O=C(Nc1nccs1)c1cccc2[nH]c(-c3c(F)cccc3Cl)nc12` [Compound 266], the EC1.5 result is on record as “B (EC1.5 1-25 uM)” and the “Fold Act. (percent maximum fold activation)” value is listed as “A (Fold activation >200%)”.

For the compound `O=C(Nc1nccs1)c1cccc2[nH]c(-c3ccccc3OCCN3CCCC(F)(F)C3)nc12` [Compound 611], under setting [1], the EC1.5 entry is listed as “C (EC1.5 >25 uM)” and the “Fold Act. (percent maximum fold activation)” value is on record as “B (Fold Activation <200%)”.

In the case of `Cc1nc(NC(=O)c2cccc3[nH]c(-c4cccc(C(F)(F)F)c4)nc23)sc1C` [Compound 274], the EC1.5 result is reported as “A (EC1.5<1.0 uM)” and the “Fold Act. (percent maximum fold activation)” value is “A (Fold activation >200%)”.

With `CS(=O)(=O)c1cccc(-c2nc3c(C(=O)Nc4nccs4)cccc3[nH]2)c1` [Compound 402], the “Fold Act. (percent maximum fold activation)” value under setting [2] is reported as “A (Fold activation >200%)”. The EC1.5 under setting [3] is less than 1000 nM.

For the compound `O=C(Nc1nccs1)c1cccc2[nH]c(-c3ccc(N4CCOCC4)nc3)nc12` [Compound 247, 2-(6-morpholinopyridin-3-yl)-N-(thiazol-2-yl)-1H-benzo[d]imidazole-4-carboxamide], the EC1.5 entry was “A (EC1.5<1.0 uM)” and the “Fold Act. (percent maximum fold activation)” value is given as “A (Fold activation >200%)”.

`Cc1cnc(NC(=O)c2cncc3[nH]c(-c4ccc(F)cc4C(F)(F)F)nc23)s1` [Compound 697]: under setting [1], the EC1.5 entry is “A (EC1.5<1.0 uM)” and the “Fold Act. (percent maximum fold activation)” value is on record as “A (Fold activation >200%)”.

Regarding `O=C(Nc1nccs1)c1cc(F)cc2[nH]c(-c3ccc(OC[C@@H](O)CO)cc3C(F)F)nc12` [Compound 831], under setting [1], the EC1.5 entry was “A (EC1.5<1.0 uM)” and the “Fold Act. (percent maximum fold activation)” value was “A (Fold activation >200%)”.

In the case of `O=C(Nc1ccncn1)c1cccc2[nH]c(-c3ccc(N4CCCC4)cc3C(F)F)nc12` [Compound 776], under setting [1], the EC1.5 entry is “A (EC1.5<1.0 uM)” and the “Fold Act. (percent maximum fold activation)” value is “A (Fold activation >200%)”.

Consider `O=C(Nc1cccc(OC2CCNC2)c1)c1cccc2[nH]c(-c3ccc(Cl)cc3C(F)(F)F)nc12` (centres unmarked) [Compound 599], for which, under setting [1], the EC1.5 result is “A (EC1.5<1.0 uM)” and the “Fold Act. (percent maximum fold activation)” value is “A (Fold activation >200%)”.

Source of the values: US8846947B2, “Benzimidazoles and related analogs as sirtuin modulators” (GlaxoSmithKline LLC, priority 2008, dated 2014).
